# Data published in paper PMC7587356, “High-Throughput Screening for Inhibitors of the SARS-CoV-2 Protease Using a FRET-Biosensor” (Molecules, 2020).
# Structures can show the parent of a compound that is named as a salt. Where two headings read alike, the source gives them in different places.
# Target: SARS-CoV-2 3CLpro (Severe acute respiratory syndrome coronavirus 2, UniProt P0DTD1)
# Assay: biochemical
# Format: biochemical
# Design: Replicate_1 / Replicate_2 / mean / mean (LOPAC_screen_w_protease): unit not given here
# Settings: for inhibition at 5 µM: 4 h
# [1] = sheet LOPAC_screen_w_protease, primary screen with protease, mean of two replicates, read-out: mean
# [2] = sheet LOPAC_screen_w_protease, primary screen with protease, replicate 1, read-out: Replicate_1
# [3] = sheet LOPAC_screen_w_protease, primary screen with protease, replicate 2, read-out: Replicate_2
# [4] = sheet LOPAC_screen_w_protease, primary screen with protease, mean of two replicates
# [5] = sheet LOPAC_screen_w_protease, primary screen with protease, replicate 1
# [6] = sheet LOPAC_screen_w_protease, primary screen with protease, replicate 2
# [7] = LOPAC1280 primary screen with protease, 5 µM compound, mean of two replicates
# [8] = LOPAC1280 primary screen with protease, 5 µM compound, replicate 1
# [9] = LOPAC1280 primary screen with protease, 5 µM compound, replicate 2
# [10] = sheet LOPAC_screen_w_protease, LOPAC1280 primary screen with protease, 5 µM compound, mean of the two replicates
# [11] = sheet LOPAC_screen_w_protease, LOPAC1280 primary screen with protease, 5 µM compound, replicate 1
# [12] = sheet LOPAC_screen_w_protease, LOPAC1280 primary screen with protease, 5 µM compound, replicate 2
# [13] = sheet LOPAC_screen_w_protease, LOPAC1280 at 5 µM, mean of two replicates
# [14] = sheet LOPAC_screen_w_protease, LOPAC1280 at 5 µM, replicate 1
# [15] = sheet LOPAC_screen_w_protease, LOPAC1280 at 5 µM, replicate 2
# [16] = sheet LOPAC_screen_w_protease, LOPAC1280 primary screen at 5 µM, with protease, mean of the two replicates
# [17] = sheet LOPAC_screen_w_protease, LOPAC1280 primary screen at 5 µM, with protease, replicate 1
# [18] = sheet LOPAC_screen_w_protease, LOPAC1280 primary screen at 5 µM, with protease, replicate 2
# [19] = sheet LOPAC_screen_w_protease, primary screen with protease, 5 µM, mean of two replicates
# [20] = sheet LOPAC_screen_w_protease, primary screen with protease, 5 µM, replicate 1
# [21] = sheet LOPAC_screen_w_protease, primary screen with protease, 5 µM, replicate 2
# [22] = LOPAC1280 primary screen with protease, 5 µM compound, mean of the two replicates
# [23] = read-out: Replicate_1 (LOPAC_screen_w_protease)
# [24] = read-out: Replicate_2 (LOPAC_screen_w_protease)
# [25] = sheet LOPAC_screen_w_protease, LOPAC1280 primary screen at 5 µM, with protease, mean of the two replicates, read-out: mean
# [26] = sheet LOPAC_screen_w_protease, LOPAC1280 primary screen at 5 µM, with protease, replicate 1, read-out: Replicate_1
# [27] = sheet LOPAC_screen_w_protease, LOPAC1280 primary screen at 5 µM, with protease, replicate 2, read-out: Replicate_2
# [28] = sheet LOPAC_screen_w_protease, LOPAC1280 at 5 µM, mean of two replicates, read-out: mean
# [29] = sheet LOPAC_screen_w_protease, LOPAC1280 at 5 µM, replicate 1, read-out: Replicate_1
# [30] = sheet LOPAC_screen_w_protease, LOPAC1280 at 5 µM, replicate 2, read-out: Replicate_2
# [31] = sheet LOPAC_screen_w_protease, primary screen at 5 µM, mean of two replicates
# [32] = sheet LOPAC_screen_w_protease, primary screen at 5 µM, replicate 1
# [33] = sheet LOPAC_screen_w_protease, primary screen at 5 µM, replicate 2
structure (smiles),measurement,setting,value
O=C([O-])c1cc2cc(Cc3cccnc3)ccc2o1.[Na+] [Furegrelate sodium],mean,"sheet LOPAC_screen_w_protease, primary screen of LOPAC1280 at 5 µM with protease, mean of the two replicates",4.074
same,Replicate_1,"sheet LOPAC_screen_w_protease, primary screen of LOPAC1280 at 5 µM with protease, replicate 1",5.241
same,Replicate_2,"sheet LOPAC_screen_w_protease, primary screen of LOPAC1280 at 5 µM with protease, replicate 2",2.907
CCCCc1ccc(C(=O)O)nc1 [Fusaric acid],inhibition at 5 µM,[1],2.51%
same,inhibition at 5 µM,[2],3.23%
same,inhibition at 5 µM,[3],1.8%
CC(=O)O[C@H]1C[C@@]2(C)[C@@H](C[C@@H](O)[C@H]3[C@@]4(C)CC[C@@H](O)[C@@H](C)[C@@H]4CC[C@@]32C)/C1=C(\CCC=C(C)C)C(=O)[O-].[Na+] [Fusidic acid sodium],mean,[4],2.25
same,Replicate_1,[5],4.338
same,Replicate_2,[6],0.1614
NCCCC(=O)O [GABA],mean (LOPAC_screen_w_protease),[7],1.638
same,Replicate_1 (LOPAC_screen_w_protease),[8],1.648
same,Replicate_2 (LOPAC_screen_w_protease),[9],1.628
Cl.Cl.Fc1ccc(C(OCCN2CCN(CCCc3ccccc3)CC2)c2ccc(F)cc2)cc1 [GBR-12909 dihydrochloride],mean,[10],4.322
same,Replicate_1,[11],4.518
same,Replicate_2,[12],4.126
Cl.Cl.c1ccc(CCCN2CCN(CCOC(c3ccccc3)c3ccccc3)CC2)cc1 [GBR-12935 dihydrochloride],mean,[13],0.9925
same,Replicate_1,[14],2.277
same,Replicate_2,[15],-0.2925
COc1ccc(CNC(=O)/C=C/c2ccc3[nH]cc(CCN(C)C)c3c2)cc1 [GR 4661],mean,[16],0.4567
same,Replicate_1,[17],1.411
same,Replicate_2,[18],-0.4976
Cn1cc(C(=O)OCC2CCN(CCNS(C)(=O)=O)CC2)c2ccccc21 [GR 113808],mean,[13],1.128
same,Replicate_1,[14],1.417
same,Replicate_2,[15],0.838
COc1[nH]c2ccc(F)cc2c1C(=O)OCC1CCN(CCNS(C)(=O)=O)CC1.NS(=O)(=O)O [GR 125487 sulfamate salt],mean,[16],0.6171
same,Replicate_1,[17],2.002
same,Replicate_2,[18],-0.7681
COc1ccc(NC(=O)c2ccc(-c3ccc(-c4noc(C)n4)cc3C)cc2)cc1N1CCN(C)CC1.Cl [GR 127935 hydrochloride],mean,[16],0.6456
same,Replicate_1,[17],0.5978
same,Replicate_2,[18],0.6934
COC(=O)N1CCN(C(=O)Cc2ccc(Cl)c(Cl)c2)C(CN2CCCC2)C1.O=C(O)/C=C/C(=O)O (centres unmarked) [GR-89696 fumarate],mean,[4],2.523
same,Replicate_1,[5],2.9956
same,Replicate_2,[6],2.05
CN(CCOc1ccc(C[C@H](Nc2ccccc2C(=O)c2ccccc2)C(=O)O)cc1)c1ccccn1 [GW1929],mean,[13],1.294
same,Replicate_1,[14],1.2073
same,Replicate_2,[15],1.38
CN(C)c1cc2c(Nc3ccc4c(cnn4Cc4ccccc4)c3)ncnc2cn1 [GW2974],mean (LOPAC_screen_w_protease),[7],1.489
same,Replicate_1 (LOPAC_screen_w_protease),[8],2.805
same,Replicate_2 (LOPAC_screen_w_protease),[9],0.1722
O=C1Nc2ccc(I)cc2/C1=C/c1cc(Br)c(O)c(Br)c1 [GW5074],mean,[10],5.786
same,Replicate_1,[11],6.4599
same,Replicate_2,[12],5.112
CC(C)(Sc1ccc(CCN(CCCCC2CCCCC2)C(=O)NC2CCCCC2)cc1)C(=O)O [GW7647],mean,[19],-0.2447
same,Replicate_1,[20],-0.1471
same,Replicate_2,[21],-0.3423
O=C(Nc1ccccc1)c1cc([N+](=O)[O-])ccc1Cl [GW9662],mean (LOPAC_screen_w_protease),[7],1.573
same,Replicate_1 (LOPAC_screen_w_protease),[8],2.013
same,Replicate_2 (LOPAC_screen_w_protease),[9],1.1319
CC1=NN=C(c2ccc(N)cc2)c2cc3c(cc2C1)OCO3.Cl [GYKI 52466 hydrochloride],mean,[16],0.5948
same,Replicate_1,[17],3.75
same,Replicate_2,[18],-2.56
CC1Cc2cc3c(cc2C(c2ccc(N)cc2)=NN1)OCO3.Cl (centres unmarked) [GYKI 52895],mean,[10],5.365
same,Replicate_1,[11],5.021
same,Replicate_2,[12],5.7079
Cl.NC1C=CC=C(C(=O)O)C1 (centres unmarked) [Gabaculine hydrochloride],mean (LOPAC_screen_w_protease),[22],2.074
same,Replicate_1 (LOPAC_screen_w_protease),[8],1.548
same,Replicate_2 (LOPAC_screen_w_protease),[9],2.6
NCC1(CC(=O)O)CCCCC1 [Gabapentin],mean (LOPAC_screen_w_protease),,1.9821
same,inhibition at 5 µM,[23],3.94%
same,inhibition at 5 µM,[24],0.0248%
CC[N+](CC)(CC)CCOc1cccc(OCC[N+](CC)(CC)CC)c1OCC[N+](CC)(CC)CC [Gallamine triethiodide],inhibition at 5 µM,"sheet LOPAC_screen_w_protease, primary screen at 5 µM, mean of two replicates, read-out: mean (LOPAC screen with protease)",11.3%
same,inhibition at 5 µM,"sheet LOPAC_screen_w_protease, primary screen at 5 µM, replicate 1, read-out: Replicate_1 (LOPAC screen with protease)",12.1%
same,inhibition at 5 µM,"sheet LOPAC_screen_w_protease, primary screen at 5 µM, replicate 2, read-out: Replicate_2 (LOPAC screen with protease)",10.6%
Nc1nc(O)c2ncn(COC(CO)CO)c2n1 [Ganciclovir],inhibition at 5 µM,[25],0.74%
same,inhibition at 5 µM,[26],1%
same,inhibition at 5 µM,[27],0.479%
O=c1c(-c2ccc(O)cc2)coc2cc(O)cc(O)c12 [Genistein],inhibition at 5 µM,[23],2.15%
same,inhibition at 5 µM,[24],0.656%
COc1ccc(Cl)cc1C(=O)NCCc1ccc(S(=O)(=O)NC(=O)NC2CCCCC2)cc1 [Glibenclamide],inhibition at 5 µM,[25],0.733%
same,inhibition at 5 µM,[26],1.31%
same,inhibition at 5 µM,[27],0.155%
Cc1cnc(C(=O)NCCc2ccc(S(=O)(=O)NC(=O)NC3CCCCC3)cc2)cn1 [Glipizide],inhibition at 5 µM,read-out: Replicate_1 (LOPAC screen with protease),10.3%
same,inhibition at 5 µM,read-out: Replicate_2 (LOPAC screen with protease),3.17%
same,inhibition at 5 µM,read-out: mean (LOPAC screen with protease),6.73%
N=C(N)N/N=C/c1c(Cl)cccc1Cl [Guanabenz acetate],inhibition at 5 µM,[28],1.09%
same,inhibition at 5 µM,[29],2.57%
same,inhibition at 5 µM,[30],-0.398%
N=C(N)NC(=O)Cc1c(Cl)cccc1Cl [Guanfacine hydrochloride],inhibition at 5 µM,"sheet LOPAC_screen_w_protease, primary screen with protease, compound at 5 µM, mean of two replicates, read-out: mean",2.62%
same,inhibition at 5 µM,"sheet LOPAC_screen_w_protease, primary screen with protease, compound at 5 µM, replicate 1, read-out: Replicate_1",3.74%
same,inhibition at 5 µM,"sheet LOPAC_screen_w_protease, primary screen with protease, compound at 5 µM, replicate 2, read-out: Replicate_2",1.51%
Br.Br.NC(N)=NCCSSCCN=C(N)N [Guanidinoethyl disulfide dihydrobromide],mean (LOPAC screen with protease),[31],36.2152
same,Replicate_1 (LOPAC screen with protease),[32],35.2116
same,Replicate_2 (LOPAC screen with protease),[33],37.2188
O=C(O)C1=CCCNC1 [Guvacine hydrochloride],inhibition at 5 µM,[1],2.3%
same,inhibition at 5 µM,[2],4.35%
same,inhibition at 5 µM,[3],0.255%
CC1CNCCN1S(=O)(=O)c1cccc2cnccc12.Cl.Cl (centres unmarked) [H-7 dihydrochloride],mean (LOPAC_screen_w_protease),[7],1.4971
same,Replicate_1 (LOPAC_screen_w_protease),[8],2.345
same,Replicate_2 (LOPAC_screen_w_protease),[9],0.6491
CNCCNS(=O)(=O)c1cccc2cnccc12.Cl.Cl [H-8 dihydrochloride],mean (LOPAC screen with protease),[31],10.4369
same,Replicate_1 (LOPAC screen with protease),[32],9.7701
same,Replicate_2 (LOPAC screen with protease),[33],11.1038
Cl.Cl.NCCNS(=O)(=O)c1cccc2cnccc12 [H-9 dihydrochloride],mean,[19],0.3892
same,Replicate_1,[20],0.9278
same,Replicate_2,[21],-0.1494
O=S(=O)(c1cccc2cnccc12)N1CCNCC1 [HA-100],mean,[16],0.7375
same,Replicate_1,[17],1.4906
same,Replicate_2,[18],-0.01568
Cl.NC(N)=NCCNS(=O)(=O)c1cccc2cnccc12 [HA-1004 hydrochloride],mean (LOPAC_screen_w_protease),[7],1.6
same,Replicate_1 (LOPAC_screen_w_protease),[8],0.9796
same,Replicate_2 (LOPAC_screen_w_protease),[9],2.221
CCCCC#Cc1nc(N)c2ncn([C@@H]3O[C@H](C(=O)NCC)[C@@H](O)[C@H]3O)c2n1 [HE-NECA],mean,[19],0.2072
same,Replicate_1,[20],3.132
same,Replicate_2,[21],-2.7179
O=C(CCCN1CCC(O)(c2ccc(Cl)cc2)CC1)c1ccc(F)cc1 [Haloperidol],inhibition at 5 µM,"LOPAC1280 primary screen with protease, 5 µM compound, replicate 1, read-out: Replicate_1 (LOPAC_screen_w_protease)",2.99%
same,inhibition at 5 µM,"LOPAC1280 primary screen with protease, 5 µM compound, replicate 2, read-out: Replicate_2 (LOPAC_screen_w_protease)",0.623%
same,mean (LOPAC_screen_w_protease),[22],1.809
Cc1nccc2c1[nH]c1ccccc12 [Harmane],inhibition at 5 µM,[28],1.1%
same,inhibition at 5 µM,[29],2.71%
same,inhibition at 5 µM,[30],-0.5%
